The text below walks through data of article PMC5100001, “Defining the extreme substrate specificity of Euonymus alatus diacylglycerol acetyltransferase, an unusual membrane-bound O-acyltransferase” (Bioscience Reports, 2016).

The target in the experiment is T1, EaDAcT (Euonymus alatus diacylglycerol acetyltransferase) (Euonymus alatus, UniProt D6NSS8).
T1 construct: gene DAcT; full-length ORF in microsomes of S. cerevisiae H1246 (quadruple knockout); C-terminal HA tag printed for the pESC-URA coexpression construct; N-terminus MDAHQEIK translated from printed primer
The experiment in a line: microsomal acyltransferase assay, ESI-MS quantification of sn-3 acyl TAG. Type of experiment: biochemical. The note with it: acyl donor 50 to 1500 uM, endogenous sn-1,2-DAG as acceptor, pH 7.5, 30 C.

T1 sequence (D6NSS8 entry or part of it): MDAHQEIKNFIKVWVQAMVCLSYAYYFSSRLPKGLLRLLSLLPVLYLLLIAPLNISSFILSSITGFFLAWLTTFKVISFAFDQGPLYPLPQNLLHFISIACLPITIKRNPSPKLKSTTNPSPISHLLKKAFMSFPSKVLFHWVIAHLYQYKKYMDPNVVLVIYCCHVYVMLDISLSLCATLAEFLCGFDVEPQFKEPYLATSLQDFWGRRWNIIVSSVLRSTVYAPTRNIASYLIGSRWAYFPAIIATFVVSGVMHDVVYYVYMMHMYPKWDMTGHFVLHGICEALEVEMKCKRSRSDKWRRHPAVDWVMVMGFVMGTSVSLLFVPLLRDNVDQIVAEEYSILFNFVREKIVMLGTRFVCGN

Take `CC(=O)SCCNC(=O)CCNC(=O)[C@H](O)C(C)(C)COP(=O)(O)OP(=O)(O)OC[C@H]1O[C@@H](n2cnc3c(N)ncnc32)[C@H](O)[C@@H]1OP(=O)(O)O` [acetyl-CoA]: the “microsomal acyltransferase assay, ESI-MS quantification of sn-3 acyl TAG” value ([1,2-13C] labelled compound) is given as “higher rates of production formation were always achieved with acetyl-CoA compared with butyryl- or hexanoyl-CoA”. Regarding `CCCC(=O)SCCNC(=O)CCNC(=O)[C@H](O)C(C)(C)COP(=O)(O)OP(=O)(O)OC[C@H]1O[C@@H](n2cnc3c(N)ncnc32)[C@H](O)[C@@H]1OP(=O)(O)O` [butyryl-CoA], the “microsomal acyltransferase assay, ESI-MS quantification of sn-3 acyl TAG” value (unlabelled) was “Reaction rates with butyryl-CoA and hexanoyl-CoA were relatively similar to one another”.
